From PMC11905336, “Pyrrole‐Tethered Bisbenzoxazole Derivatives: Apoptosis‐Inducing Agents Targeting Breast Cancer Cells” (Chemical Biology & Drug Design, 2025)
Where two headings read alike, the source gives them in different places.

What was measured:
[1] = test system: HDFa cell lines; assay: Cytotoxicity on healthy dermal fibroblasts (MTT / xCELLigence real-time cell analysis); format: cell-based; conditions: Homo sapiens
Procedure: The cytotoxicity of these derivatives was also assessed in dermal fibroblast cells using xCELLigence analysis as detailed in the Supporting Information.
(§1) The human dermal fibroblast (HDFa) and human breast cancer cells (MCF‐7) were obtained from the American Type Culture Collection (ATCC; Manassas, VA, USA). Cells were cultured in RPMI medium (MCF‐7) and DMEM medium (HDFa) was supplemented with 10% FBS, 1% penicillin–streptomycin, 1% amphotericin, and 2.5% L‐glutamine at 37°C in a 5% CO2 incubator.
xCELLigence Real‐Time Cell Analysis. The xCELLigence system (Real‐Time Cell Analyzer (RTCA) Dual Plate (DP) (Roche Diagnostics GmbH, Penzberg)) was used for real‐time monitoring of cell viability without the need for labeling. A total of 1 × 10^4 HDFa cells were seeded into each well of the E‐plate, and the cell proliferation curve was monitored for 24 h. […] The Cell Index (CI) value was automatically measured every hour for each well using RTCA Software (version 1.2.1) (Yetkin et al. [2021]; Yıldırım et al. [2022]).

[2] = test system: MCF‐7 cell lines; assay: MTT assay, cytotoxicity on MCF-7 cells; format: cell-based, human; conditions: for IC50: Homo sapiens, MTT
Procedure: The cytotoxic effects of PTB derivatives on MCF‐7 breast cancer cells were evaluated using the MTT assay at various concentrations (100 nM, 1 μM, 10 μM, 50 μM, and 100 μM).
as §1
MTT Method. The MTT method is used to detect and quantify living organisms cultured with the method colorimetrically. This method relies on intact mitochondria cleaving the tetrazolium ring of the MTT dye. The MTT substance is absorbed and reduced to a colorful, water‐insoluble formazan by a mitochondria‐dependent reaction. Cell viability is measured based on the MTT reduction property, and the density of dye obtained from MTT analysis indicates the number of viable cells. In this study, cell viability was assessed using the MTT (0.5 mg/mL) solution that was added to each well. […] After adding properties to cultures, they were kept at 37°C for 24 h and overnight. Then, at 48 and 72 h after applying the molecules, 10 μL of MTT was added to each well and incubated under similar conditions for 4 h. Absorbance spectrophotometry was performed at a wavelength of 570 nm using the IC50 = [(control absorbents‐sample absorbents)/control absorbents] × 100 calculation method (Khorsandi et al. [2017]).

[3] = test system: MCF‐7 cells; assay: Apoptosis/necrosis by flow cytometry, Annexin V/propidium iodide, MCF-7; format: cell-based, human; conditions: MCF-7, 48 h, p < 0.05
Procedure: Flow cytometry analysis was performed to evaluate the percentages of apoptosis for these compounds compared to tamoxifen. MCF‐7 cell suspensions treated with each compound for 48 h were stained using an apoptosis detection kit and subsequently analyzed using flow cytometry.
The assessment of apoptosis through flow cytometry is a valuable method for obtaining quantitative results to determine the levels of apoptosis and necrosis in cells. In our study, the 48th‐hour apoptosis levels of three synthases with the lowest IC50 values (PTB derivatives B8, B14, and B18) were evaluated. To assess apoptosis levels, MCF‐7 cells and healthy fibroblast cells were incubated with these synthases for 48 h. After this incubation period, the cells were treated with Annexin‐V APC and PE propidium iodide (PI) dyes to examine apoptosis levels. Then, to examine the levels of apoptosis, the cells were incubated at a concentration of 2 × 10^5 cells/mL with 5 μL Annexin‐V APC and 10 μL PI dyes in 100 μL Binding buffer for 15 min at room temperature. Samples were then washed twice in PBS, and the BD FACS ARIA III flow cytometry device was used to determine the percentage of apoptotic cells. (Ayaz et al. [2022]).

[4] = 24 h, values greater than 100 not calculated, read-out: IC50 (μM) for HDFa cell lines, 24 h
[5] = 72 h, values greater than 100 not calculated, read-out: IC50 (μM) for HDFa cell lines, 72 h
[6] = read-out: IC50 (μM) for HDFa cell lines, 48 h, values greater than 100 not calculated
[7] = MCF7, read-out: IC50 (μM) for MCF‐7 cell lines, 48 h
[8] = MCF7, 24 h, read-out: IC50 (μM) for MCF‐7 cell lines, 24 h
[9] = MCF7, 72 h, read-out: IC50 (μM) for MCF‐7 cell lines, 72 h

| Structure (SMILES) | IC50 [1, 4] | IC50 [1, 5] | IC50 [1, 6] | IC50 [2, 7] | IC50 [2, 8] | IC50 [2, 9] | Secondary apoptosis vs control [3] | IC50 in MCF-7 compared to tamoxifen (fold lower) ([2]; MCF-7, MTT) |
| --- | --- | --- | --- | --- | --- | --- | --- | --- |
| COC(=O)c1ccc2nc(-c3ccc(-c4nc5ccc(C)cc5o4)[nH]3)oc2c1 [Compound B16, Methyl 2‐(5‐(6‐Methylbenzo[d]Oxazol‐2‐Yl)‐1H‐Pyrrol‐2‐Yl)benzo[d]Oxazole‐6‐Carboxylate] | 95.3 ± 1.03 µM | 99.3 ± 1.07 µM | 97.3 ± 1.09 µM | 2.82 ± 2.14 µM | 3.03 ± 1.35 µM | 2.93 ± 1.02 µM |  |  |
| COC(=O)c1ccc2nc(-c3ccc(-c4nc5ccccc5o4)[nH]3)oc2c1 [Compound B10, Methyl 2‐(5‐(Benzo[d]Oxazol‐2‐Yl)‐1H‐Pyrrol‐2‐Yl)benzo[d]Oxazole‐6‐Carboxylate] | 97.2 ± 1.76 µM | 99.9 ± 1.65 µM | 99.3 ± 1.34 µM | 2.88 ± 0.45 µM | 3.66 ± 1.34 µM | 2.44 ± 2.11 µM |  |  |
| Cc1ccc2oc(-c3ccc(-c4nc5cc(Cl)ccc5o4)[nH]3)nc2c1 [Compound B13, 5‐Chloro‐2‐(5‐(5‐Methylbenzo[d]Oxazol‐2‐Yl)‐1H‐Pyrrol‐2‐Yl)benzo[d]Oxazole] | ≥ 100 µM | ≥ 100 µM | ≥ 100 µM | 3.6 ± 0.56 µM | 3.43 ± 1.56 µM | 3.28 ± 1.36 µM |  |  |
| Cc1ccc2nc(-c3ccc(-c4nc5ccccc5o4)[nH]3)oc2c1 [Compound B7, 2‐(5‐(Benzo[d]Oxazol‐2‐Yl)‐1H‐Pyrrol‐2‐Yl)‐6‐Methylbenzo[d]Oxazole] | 97.3 ± 1.06 µM | 100 ± 1.03 µM | 98.5 ± 2 µM | 4.68 ± 0.98 µM | 4.08 ± 1.23 µM | 2.53 ± 1.82 µM |  |  |
| COc1ccc2oc(-c3ccc(-c4nc5cc(OC)ccc5o4)[nH]3)nc2c1 [Compound B4, 2,5‐Bis(5‐Methoxybenzo[d]Oxazol‐2‐Yl)‐1H‐Pyrrole] | 97.3 ± 1.34 µM | ≥ 100 µM | 99.23 ± 0.32 µM | 4.19 ± 1.86 µM | 4.56 ± 1.56 µM | 3.11 ± 0.56 µM |  |  |
| Cc1ccc2nc(-c3ccc(-c4nc5ccc(C)cc5o4)[nH]3)oc2c1 [Compound B3, 2,5‐Bis(6‐Methylbenzo[d]Oxazol‐2‐Yl)‐1H‐Pyrrole] | ≥ 100 µM | ≥ 100 µM | ≥ 100 µM | 4.38 ± 0.98 µM | 3.3 ± 1.96 µM | 3.53 ± 0.65 µM |  |  |
| COc1ccc2oc(-c3ccc(-c4nc5ccc(C)cc5o4)[nH]3)nc2c1 [Compound B15, 5‐Methoxy‐2‐(5‐(6‐Methylbenzo[d]Oxazol‐2‐Yl)‐1H‐Pyrrol‐2‐Yl)benzo[d]Oxazole] | ≥ 100 µM | ≥ 100 µM | ≥ 100 µM | 8.09 ± 2.06 µM | 2.49 ± 1.64 µM | 2.53 ± 1.56 µM |  |  |
| COc1ccc2oc(-c3ccc(-c4nc5cc(C)ccc5o4)[nH]3)nc2c1 [Compound B12, 5‐Methoxy‐2‐(5‐(5‐Methylbenzo[d]Oxazol‐2‐Yl)‐1H‐Pyrrol‐2‐Yl)benzo[d]Oxazole] | ≥ 100 µM | ≥ 100 µM | ≥ 100 µM | 3.49 ± 0.46 µM | 3.88 ± 0.23 µM | 3.11 ± 0.87 µM |  |  |
| Cc1ccc2oc(-c3ccc(-c4nc5cc(C)ccc5o4)[nH]3)nc2c1 [Compound B2, 2,5‐Bis(5‐Methylbenzo[d]Oxazol‐2‐Yl)‐1H‐Pyrrole] | 96.3 ± 1.03 µM | 99.3 ± 1.03 µM | 94.3 ± 1.56 µM | 4.5 ± 0.23 µM | 4.6 ± 2.2 µM | 2.06 ± 1.67 µM |  |  |
| Cc1ccc2nc(-c3ccc(-c4nc5cc(Cl)ccc5o4)[nH]3)oc2c1 [Compound B19, 5‐Chloro‐2‐(5‐(6‐Methylbenzo[d]Oxazol‐2‐Yl)‐1H‐Pyrrol‐2‐Yl)benzo[d]Oxazole] | 97.3 ± 1.34 µM | 99.82 ± 0.89 µM | 97.3 ± 1.2 µM | 2.97 ± 1.12 µM | 2.83 ± 0.87 µM | 3.42 ± 1.12 µM |  |  |
| COC(=O)c1ccc2nc(-c3ccc(-c4nc5cc(Cl)ccc5o4)[nH]3)oc2c1 [Compound B20, Methyl 2‐(5‐(5‐Chlorobenzo[d]Oxazol‐2‐Yl)‐1H‐Pyrrol‐2‐Yl)benzo[d]Oxazole‐6‐Carboxylate] | 95.4 ± 1.94 µM | ≥ 100 µM | 97.3 ± 1.43 µM | 3.25 ± 0.97 µM | 2.97 ± 1.13 µM | 3.07 ± 2.96 µM |  |  |
| Clc1ccc2oc(-c3ccc(-c4nc5cc(Cl)ccc5o4)[nH]3)nc2c1 [Compound B5, 2,5‐Bis(5‐Chlorobenzo[d]Oxazol‐2‐Yl)‐1H‐Pyrrole] | 95.3 ± 1.92 µM | ≥ 100 µM | 97.5 ± 2.93 µM | 2.69 ± 2.01 µM | 3.73 ± 1.05 µM | 3.28 ± 1.32 µM |  |  |
| Cc1ccc2oc(-c3ccc(-c4nc5ccccc5o4)[nH]3)nc2c1 [Compound B6, 2‐(5‐(Benzo[d]Oxazol‐2‐Yl)‐1H‐Pyrrol‐2‐Yl)‐5‐Methylbenzo[d]Oxazole] | 98.5 ± 1.02 µM | 99.1 ± 1.73 µM | 99 ± 1.76 µM | 3.09 ± 1.23 µM | 2.81 ± 0.76 µM | 3.02 ± 0.89 µM |  |  |
| COc1ccc2oc(-c3ccc(-c4nc5cc(Cl)ccc5o4)[nH]3)nc2c1 [Compound B17, 5‐Chloro‐2‐(5‐(5‐Methoxybenzo[d]Oxazol‐2‐Yl)‐1H‐Pyrrol‐2‐Yl)benzo[d]Oxazole] | 98.3 ± 1.57 µM | 99 ± 1 µM | 99 ± 1.96 µM | 3.44 ± 1.12 µM | 3.7 ± 1.12 µM | 3.03 ± 0.76 µM |  |  |
| c1ccc2oc(-c3ccc(-c4nc5ccccc5o4)[nH]3)nc2c1 [Compound B1, 2,5‐Bis(Benzo[d]Oxazol‐2‐Yl)‐1H‐Pyrrole] | 89.4 ± 1.23 µM | ≥ 100 µM | 89.93 ± 0.43 µM | 2.96 ± 1.02 µM | 3.89 ± 1.15 µM | 3.13 ± 1.12 µM |  |  |
| Clc1ccc2oc(-c3ccc(-c4nc5ccccc5o4)[nH]3)nc2c1 [Compound B9, 2‐(5‐(Benzo[d]Oxazol‐2‐Yl)‐1H‐Pyrrol‐2‐Yl)‐5‐Chlorobenzo[d]Oxazole] | 95.4 ± 1.29 µM | 101 ± 1.38 µM | 97.5 ± 1.99 µM | 3.23 ± 0.63 µM | 3.84 ± 1.12 µM | 2.77 ± 1.23 µM |  |  |
| Cc1ccc2oc(-c3ccc(-c4nc5ccc(C)cc5o4)[nH]3)nc2c1 [Compound B11, 6‐Methyl‐2‐(5‐(5‐Methylbenzo[d]Oxazol‐2‐Yl)‐1H‐Pyrrol‐2‐Yl)benzo[d]Oxazole] | 95.3 ± 1.65 µM | 99.4 ± 1.23 µM | 97.4 ± 1.47 µM | 3.49 ± 0.68 µM | 4.55 ± 0.09 µM | 2.44 ± 1.19 µM |  |  |
| COc1ccc2oc(-c3ccc(-c4nc5ccccc5o4)[nH]3)nc2c1 [Compound B8, 2‐(5‐(Benzo[d]Oxazol‐2‐Yl)‐1H‐Pyrrol‐2‐Yl)‐5‐Methoxybenzo[d]Oxazole] | ≥ 100 µM | ≥ 100 µM | ≥ 100 µM | 1.89 ± 0.12 µM | 4.4 ± 0.79 µM | 3.09 ± 0.21 µM | significantly elevated | approximately 8 fold |
